Measured values: US11369631B1, “Oral gelling liquid formulations” (UMM Rainforest Innovations, priority 2019, dated 2022)

Assay: Rheological analysis of thermal gelation temperature (oscillation temperature sweep, abrupt increase in G′)
Format: physicochemical
Details: for αG, rate of change in gelation temperature as a function of additive composition: 2% w/v HPMC 2910, linear fit TGel=T0−αGx (FIG. 5)
Excerpt: Rheology is the most direct and reliable way to determine the sol-gel transition temperature, as well as characterize the rheological properties of both solution and subsequent gel. As a result, a rheometer was chosen to determine the sol-gel transition temperature of the HPMC solutions disclosed. Rheological properties such as dynamic moduli G′, G″, and complex viscosity η* change when the temperature is in the vicinity of the sol-gel transition. The rheometer is able to measure these properties during heating.
During the routine measurements in these studies, the following procedure was observed: (i) Each HPMC solution was placed on to the bottom Peltier plate of the Discovery Hybrid HR-2 rheometer (TA Instruments, Newcastle, Del., USA) equipped with a Peltier […] temperature system and a 50 mm parallel plate; (ii) Oscillation temperature sweep was performed to determine the effect of temperatures on complex viscosity (η*), storage modulus (G′), and loss modulus (G″) at angular frequency of 1 rad/s and stress applied was 0.4 Pa; (iii) In this study samples were heated in the range of 10-80° C. at a rate of 1° C./min. A thin layer of low-viscosity silicon oil was placed around the sample to prevent dehydration during measurements; (iv) All measurements were repeated in triplicate. The abrupt increase in G′, which is accompanied by a sharp increase in viscosity was considered to be a suitable way to define a thermal gelation temperature.
Statistical differences in the thermal gelation temperature of different hypromellose formulations containing different halide salt concentrations were determined using a one-way ANOVA test using Microsoft Excel Analysis Toolpak (Microsoft Inc., Redmond, Wash.). P values of <0.05 were considered statistically significant.

Structure (SMILES)	αG, rate of change in gelation temperature as a function of additive composition	factor by which αG-NaF is greater than αG-NaCl (2% w/v HPMC 2910) [times]
[Cl-].[Na+] [NaCl, sodium chloride]	~4.0	–
[F-].[Na+] [NaF, Sodium fluoride]	~14.5	~3.6
